Literature values, collected in patent publication US20250195566A1, “ORAL PHARMACEUTICAL COMPOSITION FOR PREVENTING AND/OR TREATING DISEASES OF THE SOFT AND HARD TISSUES SURROUNDING THE TOOTH IN THE ORAL CAVITY” (priority 2021, published 2025).

Columns and labels:
[1] = tested on: supragingival bacterial plaque and gingival inflammation; conditions: clinical results
[2] = tested on: 52 bacteria isolated from subgingival plaque; conditions: bacteria isolated from patients with periodontitis

N=C(NCCCCCCNC(=N)NC(=N)Nc1ccc(Cl)cc1)NC(=N)Nc1ccc(Cl)cc1 [chlorhexidine, Chlorhexidine]
reduction of gingival inflammation [1]: 45% | reduction of supragingival bacterial plaque [1]: 55% | concentration at which all bacteria were inhibited [2]: 250 mg/mL
